# Test results published in article PMC11110133, “Thiophene-fused γ-lactams inhibit the SARS-CoV-2 main protease via reversible covalent acylation” (Chemical Science, 2024).
# Where two headings read alike, the source gives them in different places.
# Legend:
# [1] = target: T1, isolated recombinant SARS-CoV-2 M^pro (Severe acute respiratory syndrome coronavirus 2, UniProt P0DTD1); assay: SPE-MS SARS-CoV-2 Mpro inhibition assay; type: biochemical; conditions: for IC50: SPE-MS, SARS-CoV-2 M^pro 0.05 μM, substrate peptide 2.0 μM, mean ± SD of two independent runs (n = 2); for fold increase in M^pro inhibition potency relative to γ-lactam 7: relative to 7; for fold more efficient M^pro inhibition than γ-lactam 5: relative to reported γ-lactam 5; for fold more efficient M^pro inhibition than pyrazolidinone 6: relative to reported pyrazolidinone 6
# [2] = target: T1, isolated recombinant SARS-CoV-2 M^pro; parameters: method as in PMID 35549342; conditions: cited from earlier work; for IC50: reported M^pro inhibition
# M^pro [3] = conditions: mass spectrometric analyses; cited from earlier work
# [4] = target: T1, isolated recombinant SARS-CoV-2 M^pro; type: binding; conditions: for covalent reaction with M^pro (protein-observed MS): M^pro 3.0 μM, γ-lactam 15 μM, 20 mM HEPES pH 7.5, 4 h incubation
# M^pro [5] = system: M^pro; parameters: method as in PMID 37866713; conditions: reported M^pro inhibition; cited from earlier work
smiles,measurement,setting,value
CS(=O)(=O)N1C(=O)Cc2ccccc21 [compound 11],IC50,[1],did not inhibit
"CC1(C)C(C(=O)OCc2ccccc2)N2C(=O)C(NC(=O)COc3ccccc3)C2S1(=O)=O (stereo not drawn) [compound 3, penicillin V sulfone benzyl ester]",IC50,[2],~6.6 µM
same,covalent reaction with M^pro (reported),M^pro [3],covalent reaction of its β-lactam with the active site Cys145
CC1(C)C(=O)N(S(C)(=O)=O)c2sccc21 [C00008],IC50,[1]; read-out: IC50,> 100 µM
CCCC1C(=O)N(S(C)(=O)=O)c2sccc21 (stereo not drawn) [16b],covalent reaction with M^pro (protein-observed MS),[4],react covalently
CC1C(=O)N(S(C)(=O)=O)c2sccc21 (stereo not drawn) [16a],fold increase in M^pro inhibition potency relative to γ-lactam 7,[1],~2 fold
same,complex observed after adding excess 24 to the M^pro:16a mixture (reversibility),"[4]; 16a with M^pro 2 h at 0 °C (1 : 5), then 24 for 3 h at 0 °C, SPE-MS",not detected
same,covalent reaction with the covalent M^pro:nirmatrelvir alkyne (24) complex (Cys145 blocked),"[4]; M^pro 3.0 μM pre-reacted with 24, then 16a 15 μM, 2 h",does not covalently react
same,covalent reaction with M^pro (protein-observed MS),[4],react covalently
CS(=O)(=O)N1C(=O)Cc2cscc21 [C00003],IC50,[1]; read-out: IC50,> 100 µM
O=C(O)C1=C(C(=O)N(Cc2ccccc2)Cc2ccccc2)CN2C[C@H](NC(=O)[C@H](Cc3ccccc3)NC(=O)c3cc4ccccc4[nH]3)C(=O)N12 [compound 6],IC50,M^pro [5],~45 µM
CS(=O)(=O)N1C(=O)C(Cc2ccccc2)c2ccsc21 (racemic) [C00014],IC50,[1]; read-out: IC50,4 ± 0.4 µM
CS(=O)(=O)N1C(=O)C2(CC=CC2)c2sccc21 [C00015],IC50,[1]; read-out: IC50,> 100 µM
CS(=O)(=O)N1C(=O)Cc2sccc21 [C00002],IC50,[1]; read-out: IC50,8.4 ± 0.5 µM
CS(=O)(=O)n1c(=O)n(S(C)(=O)=O)c2cscc21 [compound 10],IC50,[1],did not result in inhibition
O=C1Cc2ccsc2N1S(=O)(=O)c1ccc(C(F)(F)F)cc1 [23f],IC50,[1]; read-out: IC50,~1.3 µM
same,fold increase in M^pro inhibition potency relative to γ-lactam 7,[1],~6 fold
same,fold more potent than γ-lactam 23c,[1]; relative to 23c,~3 fold
same,fold more efficient M^pro inhibition than β-lactam 3,[1]; relative to reported β-lactam 3,~6 fold
same,fold more efficient M^pro inhibition than γ-lactam 5,[1],~20 fold
C=CCC1C(=O)N(S(C)(=O)=O)c2sccc21 (racemic) [16f],IC50,[1]; read-out: IC50,~3.5 µM
O=C1Cc2ccsc2N1S(=O)(=O)c1ccccc1 [23c],fold increase in M^pro inhibition potency relative to γ-lactam 7,[1],~2 fold
CS(=O)(=O)N1C(=O)Cc2ccsc21 [C00017],IC50,[1]; read-out: IC50,8.5 ± 1.4 µM
CC(C)C1C(=O)N(S(C)(=O)=O)c2sccc21 (racemic) [16c],IC50,[1]; read-out: IC50,~16 µM
same,fold less efficient M^pro inhibition than 16b,[1]; relative to propyl-substituted 16b,~5 fold
C=CCC1(CC=C)C(=O)N(S(C)(=O)=O)c2sccc21 [17b],IC50,[1],did not inhibit
C=CCC1(CC=C)C(=O)N(S(C)(=O)=O)c2sccc21 [C00011],IC50,[1]; read-out: IC50,> 100 µM
O=C1Cc2ccsc2N1S(=O)(=O)Cc1ccccc1 [23b],fold increase in M^pro inhibition potency relative to γ-lactam 7,[1],~2 fold
same,covalent reaction with M^pro (protein-observed MS),[4],react covalently
CS(=O)(=O)N1C(=O)Cc2ccsc21 [C00001],IC50,[1]; read-out: IC50,8.5 ± 1.4 µM
CS(=O)(=O)N1C(=O)Cc2ccsc21 [compound 7],IC50,[1]; read-out: IC50,~8.5 µM
same,fold more efficient M^pro inhibition than pyrazolidinone 6,[1],~5 fold
same,fold more efficient M^pro inhibition than γ-lactam 5,[1],~3 fold
same,covalent reaction with M^pro (protein-observed MS),[4],react covalently
CS(=O)(=O)N1C(=O)Cc2cscc21 [compound 9],IC50,[1],did not inhibit
O=C1Cc2ccsc2N1S(=O)(=O)c1ccc([N+](=O)[O-])cc1 [C00022],IC50,[1]; read-out: IC50,4.4 ± 0.7 µM
CS(=O)(=O)N1C(=O)C(CCC#N)c2ccsc21 (racemic) [C00007],IC50,[1]; read-out: IC50,2.7 ± 0.1 µM
COc1ccc(S(=O)(=O)N2C(=O)Cc3ccsc32)cc1 [C00021],IC50,[1]; read-out: IC50,2.7 ± 0.2 µM
CC1(C)C(C(=O)OCc2ccccc2)N2C(=O)C(NC(=O)COc3ccccc3)CC2S1(=O)=O (stereo not drawn) [compound 5],fold less efficient M^pro inhibition than β-lactam 3,[2]; relative to β-lactam 3,~4 fold
same,IC50,[2],~26.1 µM
same,covalent reaction with M^pro (reported),M^pro [3],did not react to form a stable acyl–enzyme complex
CS(=O)(=O)N1C(=O)C(CCC#N)c2ccsc21 (racemic) [16e],IC50,[1]; read-out: IC50,~2.7 µM
O=C1Cc2ccsc2N1S(=O)(=O)c1ccc(C(F)(F)F)cc1 [C00023],IC50,[1]; read-out: IC50,1.3 ± 0.1 µM
CCCC1C(=O)N(S(C)(=O)=O)c2sccc21 (stereo not drawn) [C00010],IC50,[1]; read-out: IC50,3.2 ± 0.8 µM
CS(=O)(=O)n1c(=O)n(S(C)(=O)=O)c2cscc21 [C00004],IC50,[1]; read-out: IC50,> 100 µM
O=C1Cc2ccsc2N1S(=O)(=O)Cc1ccccc1 [C00019],IC50,[1]; read-out: IC50,4.3 ± 0.1 µM
CC(=O)N1C(=O)Cc2ccsc21 [C00018],IC50,[1]; read-out: IC50,> 100 µM
CS(=O)(=O)N1C(=O)C(Cc2ccccc2)c2ccsc21 (racemic) [16d],IC50,[1]; read-out: IC50,~4 µM
CS(=O)(=O)N1C(=O)C2(CC=CC2)c2ccsc21 [compound 18],IC50,[1],did not efficiently inhibit
CS(=O)(=O)N1C(=O)Cc2ccccc21 [C00005],IC50,[1]; read-out: IC50,> 100 µM
C=CCC1C(=O)N(S(C)(=O)=O)c2sccc21 (racemic) [C00009],IC50,[1]; read-out: IC50,3.5 ± 0.2 µM
CC(=O)N1C(=O)Cc2ccsc21 [23a],IC50,[1],ablated M^pro inhibition
CC1C(=O)N(S(C)(=O)=O)c2sccc21 (stereo not drawn) [C00006],IC50,[1]; read-out: IC50,3.9 ± 0.1 µM
CC1(C)C(=O)N(S(C)(=O)=O)c2sccc21 [17a],IC50,[1],did not inhibit
CC(C)C1C(=O)N(S(C)(=O)=O)c2sccc21 (racemic) [C00012],IC50,[1]; read-out: IC50,16 ± 2 µM
CS(=O)(=O)N1C(=O)Cc2sccc21 [compound 8],IC50,[1]; read-out: IC50,~8.4 µM
same,fold more efficient M^pro inhibition than pyrazolidinone 6,[1],~5 fold
same,fold more efficient M^pro inhibition than γ-lactam 5,[1],~3 fold
same,covalent reaction with M^pro (protein-observed MS),[4],react covalently
CS(=O)(=O)N1C(=O)C2(CC=CC2)c2sccc21 [compound 19],IC50,[1],did not efficiently inhibit
CS(=O)(=O)N1C(=O)C2(CC=CC2)c2ccsc21 [C00013],IC50,[1]; read-out: IC50,61 ± 4 µM
COc1ccc(S(=O)(=O)N2C(=O)Cc3ccsc32)cc1 [23d],covalent reaction with M^pro (protein-observed MS),[4],react covalently
O=C1Cc2ccsc2N1S(=O)(=O)c1ccccc1 [C00020],IC50,[1]; read-out: IC50,4.7 ± 1.1 µM
